This note sets out measurements from ChEMBL document CHEMBL3132769, “Fragment growing to retain or alter the selectivity of anchored kinase hinge-binding fragments” (Medchemcomm, 2014).

Each structure is given as a SMILES string.

Assay [1] has as its target Serine/threonine-protein kinase Chk2 (Homo sapiens) (UniProt O96017). Briefly: Inhibition of human full length CHK2 expressed in baculovirus assessed as substrate phosphorylation using fluorescence-labelled peptides as substrate at 420 uM after 90 mins by microfluidic peptide phosphorylation assay.
The target in assay [2] is T1, Serine/threonine-protein kinase BRSK2 (Homo sapiens) (UniProt Q8IWQ3).
T1 sequence (whole entry): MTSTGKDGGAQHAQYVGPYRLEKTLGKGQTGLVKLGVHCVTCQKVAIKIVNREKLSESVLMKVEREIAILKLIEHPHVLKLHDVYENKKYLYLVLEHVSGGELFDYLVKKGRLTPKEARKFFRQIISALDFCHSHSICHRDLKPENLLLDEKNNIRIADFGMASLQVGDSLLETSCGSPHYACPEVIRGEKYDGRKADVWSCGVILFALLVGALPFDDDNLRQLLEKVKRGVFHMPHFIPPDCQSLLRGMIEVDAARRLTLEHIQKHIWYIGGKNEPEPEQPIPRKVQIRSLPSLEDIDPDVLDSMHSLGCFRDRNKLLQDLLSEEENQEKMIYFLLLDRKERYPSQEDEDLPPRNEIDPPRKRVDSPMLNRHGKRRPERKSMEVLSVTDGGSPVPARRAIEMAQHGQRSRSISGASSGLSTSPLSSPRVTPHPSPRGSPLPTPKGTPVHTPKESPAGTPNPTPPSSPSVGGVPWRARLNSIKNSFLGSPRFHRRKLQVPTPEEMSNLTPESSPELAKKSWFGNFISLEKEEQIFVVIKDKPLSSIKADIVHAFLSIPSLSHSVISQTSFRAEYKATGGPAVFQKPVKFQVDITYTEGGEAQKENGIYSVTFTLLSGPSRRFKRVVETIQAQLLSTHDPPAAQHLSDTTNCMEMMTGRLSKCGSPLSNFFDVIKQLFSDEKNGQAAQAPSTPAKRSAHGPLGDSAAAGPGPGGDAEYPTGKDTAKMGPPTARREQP
Put plainly: Inhibition of human truncated BRSK2 expressed in baculovirus assessed as substrate phosphorylation using fluorescence-labelled peptides as substrate at 420 uM after 90 mins by microfluidic peptide phosphorylation assay.

In assay [3] the target is Insulin receptor (Homo sapiens) (UniProt P06213). Briefly: Inhibition of human INSR catalytic domain expressed in baculovirus assessed as substrate phosphorylation using fluorescence-labelled peptides as substrate at 0.06 uM after 90 mins by microfluidic peptide phosphorylation assay.
Assay [4] concerns the target Tyrosine-protein kinase Lck (Homo sapiens) (UniProt P06239). Briefly: Inhibition of human full length LCK expressed in baculovirus assessed as substrate phosphorylation using fluorescence-labelled peptides as substrate at 0.06 uM after 90 mins by microfluidic peptide phosphorylation assay.
For assay [5], the target named is Insulin-like growth factor 1 receptor (Homo sapiens) (UniProt P08069). Put plainly: Inhibition of human IGF1R catalytic domain expressed in baculovirus assessed as substrate phosphorylation using fluorescence-labelled peptides as substrate at 9 uM after 90 mins by microfluidic peptide phosphorylation assay.
The target of assay [6] is Proto-oncogene tyrosine-protein kinase Src (Homo sapiens) (UniProt P12931). Put plainly: Inhibition of human full length SRC expressed in baculovirus assessed as substrate phosphorylation using fluorescence-labelled peptides as substrate at 70 uM after 90 mins by microfluidic peptide phosphorylation assay.
Proto-oncogene tyrosine-protein kinase Src (Homo sapiens), sequence (P12931 2-536 limits assumed): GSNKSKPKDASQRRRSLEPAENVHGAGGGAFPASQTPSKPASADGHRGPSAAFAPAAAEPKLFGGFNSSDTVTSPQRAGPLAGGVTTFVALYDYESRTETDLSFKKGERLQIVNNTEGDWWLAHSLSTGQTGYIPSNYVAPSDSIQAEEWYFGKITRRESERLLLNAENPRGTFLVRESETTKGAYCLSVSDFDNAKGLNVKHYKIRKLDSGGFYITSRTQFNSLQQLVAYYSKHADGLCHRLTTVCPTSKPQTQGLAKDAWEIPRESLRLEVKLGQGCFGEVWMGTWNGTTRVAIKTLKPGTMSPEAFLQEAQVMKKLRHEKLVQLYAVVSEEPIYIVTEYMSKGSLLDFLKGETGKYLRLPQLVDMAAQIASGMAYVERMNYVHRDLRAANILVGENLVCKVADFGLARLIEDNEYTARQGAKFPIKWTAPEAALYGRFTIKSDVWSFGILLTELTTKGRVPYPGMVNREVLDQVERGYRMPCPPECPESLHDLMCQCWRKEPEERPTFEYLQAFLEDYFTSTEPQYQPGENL
Assay [7] deals with Tyrosine-protein kinase BTK (Homo sapiens) (UniProt Q06187). Put plainly: Inhibition of human full length BTK expressed in baculovirus assessed as substrate phosphorylation using fluorescence-labelled peptides as substrate at 2 uM after 90 mins by microfluidic peptide phosphorylation assay.
Tyrosine-protein kinase BTK (Homo sapiens), sequence (Q06187 whole entry): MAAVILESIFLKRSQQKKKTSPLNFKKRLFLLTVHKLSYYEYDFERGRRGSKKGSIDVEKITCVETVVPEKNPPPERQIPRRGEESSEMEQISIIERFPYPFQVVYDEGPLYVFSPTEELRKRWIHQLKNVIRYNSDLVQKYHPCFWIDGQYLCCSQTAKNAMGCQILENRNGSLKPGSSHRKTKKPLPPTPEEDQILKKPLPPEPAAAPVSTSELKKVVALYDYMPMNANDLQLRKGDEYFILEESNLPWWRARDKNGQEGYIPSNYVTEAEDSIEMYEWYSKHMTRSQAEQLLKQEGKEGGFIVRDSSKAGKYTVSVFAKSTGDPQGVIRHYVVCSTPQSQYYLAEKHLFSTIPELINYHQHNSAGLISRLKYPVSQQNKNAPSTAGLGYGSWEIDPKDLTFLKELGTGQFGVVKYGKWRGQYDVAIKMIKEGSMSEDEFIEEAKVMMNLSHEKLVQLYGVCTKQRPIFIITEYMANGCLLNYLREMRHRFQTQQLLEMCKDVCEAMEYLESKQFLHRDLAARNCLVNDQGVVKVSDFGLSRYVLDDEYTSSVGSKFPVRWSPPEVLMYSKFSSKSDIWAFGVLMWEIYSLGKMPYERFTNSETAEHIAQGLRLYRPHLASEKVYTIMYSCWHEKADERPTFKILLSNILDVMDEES
Assay [8] deals with MAP kinase-activated protein kinase 2 (Homo sapiens) (UniProt P49137). Put plainly: Inhibition of human full length MAPKAPK2 expressed in baculovirus assessed as substrate phosphorylation using fluorescence-labelled peptides as substrate at 2 uM after 90 mins by microfluidic peptide phosphorylation assay.
MAP kinase-activated protein kinase 2 (Homo sapiens), sequence (P49137 whole entry, looked up, the tested form may be a part): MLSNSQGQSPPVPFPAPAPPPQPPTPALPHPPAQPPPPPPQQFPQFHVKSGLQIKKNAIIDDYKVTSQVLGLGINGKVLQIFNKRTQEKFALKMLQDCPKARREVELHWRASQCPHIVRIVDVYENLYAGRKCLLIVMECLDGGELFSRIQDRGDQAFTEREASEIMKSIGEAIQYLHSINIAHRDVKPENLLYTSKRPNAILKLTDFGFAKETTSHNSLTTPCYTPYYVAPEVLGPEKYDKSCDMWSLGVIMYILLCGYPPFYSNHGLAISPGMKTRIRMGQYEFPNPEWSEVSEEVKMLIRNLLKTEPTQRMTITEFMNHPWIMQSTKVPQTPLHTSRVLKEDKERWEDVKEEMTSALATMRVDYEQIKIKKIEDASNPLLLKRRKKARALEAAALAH
Assay [9] concerns Tyrosine-protein kinase ABL1 (Homo sapiens), P00519 [H396P]. Briefly: Inhibition of human truncated ABL H396P mutant expressed in baculovirus assessed as substrate phosphorylation using fluorescence-labelled peptides as substrate at 95 uM after 90 mins by microfluidic peptide phosphorylation assay.
Assay [10] deals with Tyrosine-protein kinase BTK (Homo sapiens) (UniProt Q06187). Briefly: Inhibition of human full length BTK expressed in baculovirus assessed as substrate phosphorylation using fluorescence-labelled peptides as substrate at 1000 uM after 90 mins by microfluidic peptide phosphorylation assay.
In assay [11] the target is Ribosomal protein S6 kinase alpha-1 (Homo sapiens) (UniProt Q15418). Put plainly: Inhibition of human full length RSK1 expressed in baculovirus assessed as substrate phosphorylation using fluorescence-labelled peptides as substrate at 1000 uM after 90 mins by microfluidic peptide phosphorylation assay.
Ribosomal protein S6 kinase alpha-1 (Homo sapiens), sequence (Q15418 whole entry): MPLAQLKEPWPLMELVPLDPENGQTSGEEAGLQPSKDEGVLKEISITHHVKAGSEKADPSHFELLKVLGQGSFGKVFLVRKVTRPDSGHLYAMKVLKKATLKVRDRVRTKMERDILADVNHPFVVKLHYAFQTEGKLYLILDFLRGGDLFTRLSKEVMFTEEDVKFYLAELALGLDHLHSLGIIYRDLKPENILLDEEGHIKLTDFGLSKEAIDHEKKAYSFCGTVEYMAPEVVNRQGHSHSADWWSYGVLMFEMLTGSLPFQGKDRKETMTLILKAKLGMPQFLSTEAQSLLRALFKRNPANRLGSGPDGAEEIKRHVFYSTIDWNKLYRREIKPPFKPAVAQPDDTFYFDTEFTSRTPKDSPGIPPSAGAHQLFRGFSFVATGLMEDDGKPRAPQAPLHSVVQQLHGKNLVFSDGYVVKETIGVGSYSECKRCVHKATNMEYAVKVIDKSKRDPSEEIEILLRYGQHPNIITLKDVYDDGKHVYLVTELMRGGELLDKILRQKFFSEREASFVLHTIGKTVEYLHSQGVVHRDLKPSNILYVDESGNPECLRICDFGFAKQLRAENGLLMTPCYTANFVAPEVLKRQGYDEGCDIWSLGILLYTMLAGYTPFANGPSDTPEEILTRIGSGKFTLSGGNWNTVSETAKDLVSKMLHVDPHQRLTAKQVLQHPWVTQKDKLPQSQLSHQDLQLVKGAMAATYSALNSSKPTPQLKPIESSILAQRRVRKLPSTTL
For assay [12], the target named is Tyrosine-protein kinase ABL1 (Homo sapiens) (UniProt P00519). Briefly: Inhibition of human full-length ABL expressed in baculovirus assessed as substrate phosphorylation using fluorescence-labelled peptides as substrate at 1000 uM after 90 mins by microfluidic peptide phosphorylation assay.
The target in assay [13] is Receptor-type tyrosine-protein kinase FLT3 (Homo sapiens) (UniProt P36888). Put plainly: Inhibition of human FLT3 catalytic domain expressed in baculovirus assessed as substrate phosphorylation using fluorescence-labelled peptides as substrate at […] after 90 mins by microfluidic peptide phosphorylation assay.
Receptor-type tyrosine-protein kinase FLT3 (Homo sapiens), sequence (P36888 whole entry, the tested form may be a part): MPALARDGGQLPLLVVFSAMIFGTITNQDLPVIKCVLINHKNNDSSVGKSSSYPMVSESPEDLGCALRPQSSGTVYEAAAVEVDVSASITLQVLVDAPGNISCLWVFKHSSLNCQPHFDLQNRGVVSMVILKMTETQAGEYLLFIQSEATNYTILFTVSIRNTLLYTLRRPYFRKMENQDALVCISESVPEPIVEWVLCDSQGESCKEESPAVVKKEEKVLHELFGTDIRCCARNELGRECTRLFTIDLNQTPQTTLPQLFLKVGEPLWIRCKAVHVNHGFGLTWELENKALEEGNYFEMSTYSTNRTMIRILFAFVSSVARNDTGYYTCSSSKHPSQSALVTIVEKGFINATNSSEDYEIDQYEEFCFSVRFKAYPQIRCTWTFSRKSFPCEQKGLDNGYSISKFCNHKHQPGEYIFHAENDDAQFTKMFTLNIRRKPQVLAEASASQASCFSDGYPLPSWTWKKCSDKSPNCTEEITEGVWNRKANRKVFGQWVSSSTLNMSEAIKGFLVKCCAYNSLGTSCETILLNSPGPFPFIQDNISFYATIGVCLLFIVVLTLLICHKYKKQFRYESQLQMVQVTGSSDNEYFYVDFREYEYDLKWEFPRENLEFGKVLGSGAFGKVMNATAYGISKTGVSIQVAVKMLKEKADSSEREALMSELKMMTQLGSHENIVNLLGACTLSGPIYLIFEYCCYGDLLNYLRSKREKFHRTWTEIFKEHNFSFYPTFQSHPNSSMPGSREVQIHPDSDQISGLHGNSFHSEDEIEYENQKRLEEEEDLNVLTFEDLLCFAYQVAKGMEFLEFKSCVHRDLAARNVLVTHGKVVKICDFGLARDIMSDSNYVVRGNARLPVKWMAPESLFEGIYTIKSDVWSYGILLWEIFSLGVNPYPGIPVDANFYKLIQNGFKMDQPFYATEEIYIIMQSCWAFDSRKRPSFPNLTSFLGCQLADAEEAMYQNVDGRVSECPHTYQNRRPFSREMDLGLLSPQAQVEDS

Tyrosine-protein kinase Lck (Homo sapiens), sequence (P06239 2-509 limits assumed): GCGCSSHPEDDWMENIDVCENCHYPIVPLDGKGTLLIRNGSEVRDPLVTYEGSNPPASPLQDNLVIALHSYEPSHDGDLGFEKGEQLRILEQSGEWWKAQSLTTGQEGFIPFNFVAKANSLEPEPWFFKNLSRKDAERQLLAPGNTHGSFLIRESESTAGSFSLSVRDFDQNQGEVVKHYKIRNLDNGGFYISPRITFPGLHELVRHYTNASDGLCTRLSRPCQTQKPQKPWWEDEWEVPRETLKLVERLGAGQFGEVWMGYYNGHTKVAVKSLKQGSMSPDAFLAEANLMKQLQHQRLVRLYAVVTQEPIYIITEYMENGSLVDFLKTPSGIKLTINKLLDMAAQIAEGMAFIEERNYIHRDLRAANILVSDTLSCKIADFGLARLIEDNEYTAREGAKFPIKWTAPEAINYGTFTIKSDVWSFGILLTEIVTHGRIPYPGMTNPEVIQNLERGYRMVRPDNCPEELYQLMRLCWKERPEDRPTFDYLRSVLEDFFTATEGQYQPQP
Serine/threonine-protein kinase Chk2 (Homo sapiens), sequence (O96017 whole entry): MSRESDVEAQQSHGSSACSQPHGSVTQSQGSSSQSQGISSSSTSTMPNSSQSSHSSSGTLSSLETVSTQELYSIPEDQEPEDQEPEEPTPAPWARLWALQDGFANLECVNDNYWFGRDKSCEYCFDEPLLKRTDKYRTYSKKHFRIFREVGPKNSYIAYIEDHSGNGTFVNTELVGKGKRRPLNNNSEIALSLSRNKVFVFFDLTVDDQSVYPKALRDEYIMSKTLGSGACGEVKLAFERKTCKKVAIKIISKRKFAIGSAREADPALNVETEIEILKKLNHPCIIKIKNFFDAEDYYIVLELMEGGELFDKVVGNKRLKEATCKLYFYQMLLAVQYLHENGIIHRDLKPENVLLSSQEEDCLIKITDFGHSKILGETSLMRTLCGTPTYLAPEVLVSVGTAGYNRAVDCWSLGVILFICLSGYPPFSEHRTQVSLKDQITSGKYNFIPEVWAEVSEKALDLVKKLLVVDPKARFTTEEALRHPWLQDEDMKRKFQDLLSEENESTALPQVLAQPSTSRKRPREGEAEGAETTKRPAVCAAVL

For the molecule `c1nc(N2CCOCC2)c2nc[nH]c2n1`, the inhibition was found to be 85% in [1] and 60.5% in assay [2]. As to `NC1(Cc2ccc(Cl)cc2)CCN(c2ncnc3[nH]ccc23)CC1`, the inhibition in [3] amounted to 6%; in [4], 0%. Turning to `NCC1CN(c2ncnc3[nH]c4cnccc4c23)CCO1` (stereo not drawn), the inhibition in [5] was found to be 10%. Turning to `CNCc1ccc(-c2ncnc3[nH]cnc23)cc1`, the inhibition in assay [6] is 37.5%.

As to `NC1CCN(c2ncnc3[nH]ccc23)CC1`, the inhibition in [7] is 0.5%; in assay [8], 33%.

As for `NCCc1ccc(-c2ncnc3[nH]cnc23)cc1`, the inhibition in assay [9] turned out to be 69.5%. Consider `c1cnc2[nH]ccc2c1`, for which the inhibition in assay [10] is 19%; in [11], 60.5%; in assay [12] it was 42%.

As to `COC(=O)c1cnc(Nc2cnc(C#N)cn2)cc1NCC1CCNCC1`, the inhibition in [13] was found to be 21%.
